Assay [1] deals with sporadic PD patient fibroblasts. The experiment in a line: Cellular ATP levels (ATPlite, normalised to CyQUANT DNA content) in sporadic PD patient fibroblasts. The class given is cell-based. The note with it: Homo sapiens, Fibroblast, 24 h. How it is done: Fibroblasts were cultured in DMEM (Invitrogen) and routinely subcultured every 3-5 days using trypsin to dissociate them.
The ATP protocol is generally as described in Mortiboys et al, “Mitochondrial function and morphology are impaired in parkin-mutant fibroblasts”, Ann Neurol. 2008 November; 64(5):555-65. Briefly, fibroblasts were cultured as and plated into white 384 well plates with 5000 cells per well in 50 μl of media volume. The plates are left overnight in an incubator to allow the fibroblasts to adhere to the plate surface. The following morning the Glucose based medium is replaced with 25 μl of Galactose based medium. The compounds are added to the plates using a ECHO 550 liquid handling system. The wells were dosed to provide an 8-point concentration range of 0.06 nM-300 nM of compound. After dosing the wells are topped up with a further 25 μl of Galactose based medium and then left in an incubator for 24 hours. Following this incubation the medium is removed from the plate and the wells are washed twice with sterile PBS. The wells are filled with 25 μl of Sterile PBS followed by 12.5 μl of Lysis solution from the ATPlite™ Luminescence ATP detection assay system (Perkin Elmer), including 16 cell free wells to use as blank controls. The plate is then placed on a rotary shaker for 5 mins at 700 rpm. Following the shaking 12.5 μl of ATP substrate solution (Perkin Elmer) is added to each well and a further 5 min of shaking. The plate is then placed in darkness for 10 minutes prior to reading. Using a PHERAStar® plate reader, luminescence intensity is recorded. Following the ATP assay the plates are immediately assayed for DNA content in a CyQUANT® assay.
Immediately following The ATP assay DNA content is assessed with the CyQUANT® NF Cell Proliferation Assay Kit (ThermoFisher). CyQUANT® buffer is prepared immediately before the assay and is comprised of 1 ul CyQUANT® dye per ml×1 HBSS solution. 12.5 ul of CyQUANT® buffer is added to each well. Plate left in incubator for 1 hour then read on a PHERAStar® Plate reader with excitation at 497 nm and emission at 520 nm. ATP Quantification for each well is determined using the following formula: […]
After the assays had been repeated in triplicate per line and compound the data was then inputted into Graph pad Prism 7 software suite where a dose response curve is generated using the default “[Agonist] vs response (three parameters)” equation.
From this EC50 values, lowest response and maximal response were taken and used to calculate the Geometric mean between the 5 different lines assessed.
Cellular ATP levels were measured in fibroblasts from 6 (Table 3) or 3 (Table 4) patients with sporadic Parkinson's disease when treated with Compounds of the invention or Comparator compounds. The results are shown in Tables 3 and 4, where “Bottom”=max response with lowest dose of compound (0.06 nM) and “top”=max response with highest dose of compound (300 nM).

Assay [2] has as its system sporadic PD patient fibroblast lines. The experiment in a line: Seahorse assay (oxygen consumption, extracellular acidification rate) in sPD fibroblasts. Format: cell-based, human. How it is done:
Fibroblasts are plated into Seahorse 24 well plates with 50,000 cells per well. Cells are left to attach for 2 days. Media is changed to Seahorse DMEM media with glucose and sodium pyruvate and left to equilibrate at 37 degrees normal air CO2 for 1 hour. The plate is entered into the Seahorse machine and run on a program of mix (2 minutes), wait (3 minutes) and measure (3 minutes). After three measurements of basal respiration and ECAR; 0.5 μM oligomycin is injected after which another three measurements are taken; then 0.5 μM of FCCP is injected and three measurements taken and finally 1 μM rotenone is injected and three measurements taken. After all measurements are complete, cells are stained with 10 μM Hoescht and imaged using the InCell to count the number of cells per well for normalisation. This classical ritochondrial stress test experimental protocol allows us to calculate the basal mitochondrial respiration, ATP linked respiration (the amount which is coupled to ATP generation), the maximal and spare respiratory capacity, the non-mitochondrial respiration rate and the extracellular acidification rate which is a proxy measure of glycosolysis.

For assay [3], the system named is dopaminergic neurons derived from sPD patients (iNeurons). Briefly: Dopamine ELISA in iNeurons. The class given is cell-based, human. The note with it: untreated sPD 0. The protocol:
Briefly, iNPCs are plated in a 6-well plate and cultured for 2 days in DMEM/F-12 medium with Glutamax™ supplemented with 1% NEAA, 2% B27 (Gibco) and 2.5 μM of DAPT. On day 3, DAPT is removed and the medium is supplemented with 1 μM smoothened agonist (SAG) and FGF8 (75 ng/ml) for additional 10 days. Neurons are replated at this stage. Subsequently SAG and FGF8 are withdrawn and replaced with BDNF (30 ng/ml), GDNF (30 ng/ml), TGF-b3 […] and dcAMP (2 mM, Sigma) for 15 days.
Dopamine ELISA is performed using Dopamine research ELISA kit (Labor Diagnostika Nord GmbH&Co. KG) as per manufacturers instructions. Dopamine release is obtained incubating the cells at 37° C. using three different conditions at the same time per line. Medium is removed in all wells then the first well is incubated with HBSS with Ca^2+ and Mg^2+ (Gibco by Life Technologies) for 30 minutes, the second well is incubated in HBSS with Ca^2+ and Mg^2+ for 15 minutes and then 56 mM KCl (Fisher chemical) is added for another 15 minutes and the third well is incubated with HBSS without Ca^2+ and Mg^2+ (Gibco by Life Technologies) but with 2 mM EDTA for 15 min and then 56 mM KCl is added for another 15 minutes. Straight away media is collected in an eppendorf and cells are harvested using Accutase®, centrifuge at 400 g for 4 min and resuspended in 10 μl of PBS. […]
(In general: In an ELISA, binding on a coated surface is turned into a signal by an enzyme label.)

What is called EC50 is the midpoint of the concentration-response curve. With `C[C@H](CCC(=O)O)[C@H]1CC[C@H]2[C@@H]3[C@@H](O)C[C@@H]4C[C@@H](O)C(F)(F)C[C@]4(C)[C@H]3CC[C@]12C` [Compound 7, 2,2-difluoro-3β,7β-dihydroxy-5β-cholanic acid], in assay [1] (read-out: Cellular ATP levels Bottom (% of vehicle treated)), the activity at 60 pM is 112%. The EC50 in assay [1] (read-out: Cellular ATP levels EC50 (nM)) was found to be 0.429 nM. For the same molecule, in assay [1] (read-out: Cellular ATP levels Top (% of vehicle treated)), the activity at 0.3 µM worked out at 172%. The “Mitochondrial respiration (basal, maximal and ATP linked respiration; oxygen consumption)” value in assay [2] (6 sPD fibroblast lines, dosed at EC90 (UDCA 100 nM, Compound 7 50 nM), FIG. 1A-1C) is reported as “significantly improves all three mitochondrial parameters”. In addition, the “Extracellular acidification rate (ECAR, proxy measure of glycolysis)” value in assay [2] (6 sPD fibroblasts, FIG. 2) is on record as “significantly improved”. In assay [2] (Homo sapiens, Fibroblast, read-out: EC90 concentration), the EC90 worked out at 50 nM. The “Dopamine level (increase in dopamine release)” value in assay [3] is listed as ~5% increase in.

The record behind these values is US20220073557A1, “FLUORINATED BILE ACIDS” (NZP UK LIMITED, priority 2018, published 2022).
